Reference: US20240132485A1, “HETEROCYCLIC CULLIN RING UBIQUITIN LIGASE COMPOUNDS AND USES THEREOF” (CEMM - FORSCHUNGSZENTRUM FÜR MOLEKULARE MEDIZIN GMBH, priority 2020, published 2024)

Legend:
[1] = target: T1, DDB1-CDK12/Cyclin K ternary complex (Homo sapiens, UniProt Q16531+Q9NYV4); experiment: NanoBRET fold-change assay (HaloTag_CDK12 / NanoLuc_DDB1 in HEK293T); assay type: cell-based; settings: 10 μM compound, 10 minutes
T1 construct: expressed in transfected cells; host or cells: HEK293T wildtype cells, transient PEI transfection
T1 sequence (Q9NYV4 whole entry): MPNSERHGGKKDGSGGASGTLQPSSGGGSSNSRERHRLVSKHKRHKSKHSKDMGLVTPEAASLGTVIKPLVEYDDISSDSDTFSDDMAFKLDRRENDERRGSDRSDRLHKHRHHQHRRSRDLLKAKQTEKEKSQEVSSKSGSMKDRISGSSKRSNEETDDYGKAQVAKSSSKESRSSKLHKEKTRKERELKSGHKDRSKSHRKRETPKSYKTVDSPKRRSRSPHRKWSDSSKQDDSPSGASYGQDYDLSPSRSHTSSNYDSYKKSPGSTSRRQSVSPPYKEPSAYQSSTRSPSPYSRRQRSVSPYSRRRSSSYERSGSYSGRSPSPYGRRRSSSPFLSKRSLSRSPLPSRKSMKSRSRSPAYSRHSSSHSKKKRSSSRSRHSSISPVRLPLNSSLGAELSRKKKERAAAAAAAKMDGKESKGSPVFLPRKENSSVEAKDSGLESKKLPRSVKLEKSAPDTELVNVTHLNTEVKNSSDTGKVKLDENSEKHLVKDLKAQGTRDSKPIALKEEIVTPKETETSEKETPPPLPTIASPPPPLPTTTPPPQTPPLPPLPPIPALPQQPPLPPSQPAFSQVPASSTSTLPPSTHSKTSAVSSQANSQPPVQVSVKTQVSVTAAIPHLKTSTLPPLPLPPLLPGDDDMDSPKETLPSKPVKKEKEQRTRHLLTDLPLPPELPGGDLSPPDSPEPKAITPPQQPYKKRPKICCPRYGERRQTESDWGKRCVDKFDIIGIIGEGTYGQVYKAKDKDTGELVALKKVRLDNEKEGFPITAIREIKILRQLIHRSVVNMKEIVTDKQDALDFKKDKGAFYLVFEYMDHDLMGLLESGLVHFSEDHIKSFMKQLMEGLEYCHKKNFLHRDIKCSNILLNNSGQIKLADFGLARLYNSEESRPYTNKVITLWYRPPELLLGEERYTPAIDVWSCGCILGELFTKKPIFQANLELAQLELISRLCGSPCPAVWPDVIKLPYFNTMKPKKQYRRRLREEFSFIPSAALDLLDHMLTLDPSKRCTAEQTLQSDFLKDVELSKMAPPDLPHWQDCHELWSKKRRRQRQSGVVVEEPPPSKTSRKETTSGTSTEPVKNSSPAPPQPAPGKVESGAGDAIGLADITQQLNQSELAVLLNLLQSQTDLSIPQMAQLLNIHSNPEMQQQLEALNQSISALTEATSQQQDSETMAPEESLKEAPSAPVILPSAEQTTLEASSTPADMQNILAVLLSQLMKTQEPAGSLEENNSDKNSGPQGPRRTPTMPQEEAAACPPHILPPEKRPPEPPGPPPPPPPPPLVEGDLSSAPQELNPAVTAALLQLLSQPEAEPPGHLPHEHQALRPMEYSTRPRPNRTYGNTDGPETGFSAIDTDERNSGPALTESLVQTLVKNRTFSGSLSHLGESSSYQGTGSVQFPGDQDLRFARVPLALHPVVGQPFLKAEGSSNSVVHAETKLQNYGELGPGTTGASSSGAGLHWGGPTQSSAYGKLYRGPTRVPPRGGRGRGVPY
T1 sequence (Q16531 whole entry): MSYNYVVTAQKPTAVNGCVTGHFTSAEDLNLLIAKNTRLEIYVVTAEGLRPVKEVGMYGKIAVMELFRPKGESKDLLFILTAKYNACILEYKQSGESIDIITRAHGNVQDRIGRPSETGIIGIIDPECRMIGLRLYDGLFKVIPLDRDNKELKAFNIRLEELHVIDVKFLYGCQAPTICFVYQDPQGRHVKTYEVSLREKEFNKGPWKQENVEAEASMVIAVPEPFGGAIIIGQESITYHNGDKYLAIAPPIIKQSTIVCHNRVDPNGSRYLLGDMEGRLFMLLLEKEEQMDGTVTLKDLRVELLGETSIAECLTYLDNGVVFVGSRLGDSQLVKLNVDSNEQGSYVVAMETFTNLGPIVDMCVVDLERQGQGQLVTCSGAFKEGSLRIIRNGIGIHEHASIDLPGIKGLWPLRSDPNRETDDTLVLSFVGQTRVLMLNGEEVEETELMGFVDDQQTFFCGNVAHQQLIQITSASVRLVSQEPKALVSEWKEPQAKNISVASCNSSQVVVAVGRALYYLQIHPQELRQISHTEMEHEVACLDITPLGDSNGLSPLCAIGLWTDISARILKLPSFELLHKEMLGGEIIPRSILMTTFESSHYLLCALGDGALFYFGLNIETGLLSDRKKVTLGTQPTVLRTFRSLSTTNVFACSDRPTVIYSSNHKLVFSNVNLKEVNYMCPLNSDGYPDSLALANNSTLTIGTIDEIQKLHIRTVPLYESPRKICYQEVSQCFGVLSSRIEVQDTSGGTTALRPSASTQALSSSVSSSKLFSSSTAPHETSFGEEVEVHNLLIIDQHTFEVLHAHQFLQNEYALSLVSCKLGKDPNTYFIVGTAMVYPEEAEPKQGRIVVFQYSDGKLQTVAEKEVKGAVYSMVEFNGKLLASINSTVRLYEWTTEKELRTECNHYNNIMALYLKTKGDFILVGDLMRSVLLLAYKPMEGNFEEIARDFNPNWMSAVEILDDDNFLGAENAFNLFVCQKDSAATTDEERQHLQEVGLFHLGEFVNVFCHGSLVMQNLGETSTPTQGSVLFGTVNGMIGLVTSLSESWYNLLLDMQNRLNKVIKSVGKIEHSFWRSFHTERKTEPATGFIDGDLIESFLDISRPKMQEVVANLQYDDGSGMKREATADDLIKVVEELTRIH
T1 sequence (O75909 whole entry partner): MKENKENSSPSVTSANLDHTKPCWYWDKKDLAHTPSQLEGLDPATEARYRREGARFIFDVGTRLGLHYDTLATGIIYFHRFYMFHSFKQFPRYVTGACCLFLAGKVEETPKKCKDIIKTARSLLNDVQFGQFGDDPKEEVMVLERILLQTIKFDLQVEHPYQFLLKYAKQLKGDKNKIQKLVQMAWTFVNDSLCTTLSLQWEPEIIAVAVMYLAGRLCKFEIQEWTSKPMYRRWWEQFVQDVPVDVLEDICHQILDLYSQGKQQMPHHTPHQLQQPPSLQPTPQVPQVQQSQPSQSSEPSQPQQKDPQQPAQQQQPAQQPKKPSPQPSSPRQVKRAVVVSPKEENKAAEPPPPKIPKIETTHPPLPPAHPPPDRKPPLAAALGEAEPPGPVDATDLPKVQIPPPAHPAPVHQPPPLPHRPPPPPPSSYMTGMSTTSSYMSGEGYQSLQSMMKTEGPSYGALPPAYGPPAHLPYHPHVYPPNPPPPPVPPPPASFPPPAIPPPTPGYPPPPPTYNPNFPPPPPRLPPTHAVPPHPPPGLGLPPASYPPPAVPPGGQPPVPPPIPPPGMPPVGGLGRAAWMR
Procedure, shortened: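 HEK293T cells transiently co-transfected with HaloTag_CDK12 and NanoLuc_DDB1, labelled overnight with 100 nM HaloTag 618 ligand (DMSO no-ligand control), then treated with compound at 10 μM final for 10 min at room temperature. BRET read as 460 nm donor and 647 nm acceptor emission after Nano-Glo substrate; reported as fold change.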

[2] = test system: KBM7 cells (wild-type); experiment: KBM7 CTG EC50 assay (UBE2M wild-type); assay type: cell-based, human; settings: for EC50: Homo sapiens, KBM-7, 72 h incubation, CellTiter-Glo, read-out: KBM7 CTG EC50 (UBE2M wild-type) Activity Class; for Ratio UBE2M WT to KO: ratio of anti-proliferative activity in KBM7 wild-type versus UBE2M knock-out cells (fold)
Procedure, shortened: (§1)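 Wild-type KBM7 cells, or KBM7 cells with a hypomorphic UBE2M mutation that impairs Cullin-RING ligase activity, were treated for 72 h with compounds in a 10-point, 1:4 titration (0 to 20 μM). Viability was read by CellTiter-Glo 2.0 luminescence.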

[3] = test system: CCNK; experiment: NanoLuc-CCNK degradation assay (HEK293T_Nluc_CCNK-tagged cells); assay type: cell-based; settings: for DC50 / NanoLuc-CCNK degradation DC50 Activity Class: 4 h incubation, HEK293T_Nluc_CCNK-tagged cells; for DC50: read-out: NanoLuc-CCNK degradation DC50 Activity Class
Procedure, shortened: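 HEK293T cells with nanoluciferase knocked in at the N-terminus of endogenous CCNK (CRISPR) exposed to a 10-point titration (0 to 10 μM, 1:4) in Opti-MEM I + 4% FBS for 4 h. Nano-Glo substrate then added and luminescence read as a measure of Cyclin K abundance.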

[4] = test system: KBM7 cells harboring a hypomorphic UBE2M mutation; experiment: KBM7 CTG EC50 assay (UBE2M knock-out); assay type: cell-based; settings: Homo sapiens, KBM-7; 72 h incubation, CellTiter-Glo; read-out: KBM7 CTG EC50 (UBE2M knock-out) Activity Class
Procedure, shortened: as §1

[5] = target: T1, DDB1-CDK12/Cyclin K ternary complex; experiment: NanoBRET EC50 assay (HaloTag_CDK12 / NanoLuc_DDB1 in HEK293T); assay type: cell-based; settings: for NanoBRET EC50 Activity Class / EC50: 10-point titration from 20 μM, HEK293T; for EC50: read-out: NanoBRET EC50 Activity Class
Experimental: This assay measures the interaction/recruitment of CDK12/Cyclin K to DDB1, mechanistically validating the molecular glue pharmacology.
HEK293T wildtype cells are seeded 800 k cells/well (DMEM+10% FBS+1% PS) in a 6-well plate and allowed to attach for ˜7 hours followed by a transient transfection of 1.5 μg HaloTag_CDK12 Plasmid [Table 1] and 0.15 μg NanoLuc_DDB1 plasmid [Table 1] per well using PEI. Cells are incubated at 37° C., 5% CO2, harvested after 24 hours and resuspended in assay media (Opti-MEM Reduced serum media, no phenol red, 4% FBS, 1% PS). Cells are adjusted to 2.3×10^5 cells/ml and treated with HaloTag 618 Ligand at 100 nM or DMSO. 8000 cells are seeded per well in triplicates per compound in a white-walled 384-well plate, one negative control treated with DMSO instead of HaloTag 618 Ligand is seeded in triplicates and the 384-well plate is incubated at 37° C., 5% CO2 overnight. Compound stock solutions are prepared in Opti-MEM−/− (Opti-MEM I Reduced serum media, no phenol red) at 8× and used to treat the cells at a final concentration of 1× at 10 μM. Cells and compounds are incubated for 10 minutes at room temperature followed by addition of NanoBRET Nano-Glo substrate following manufacturer's protocols. The plate is shaken for 30 sec followed by immediate measurement of donor emission (NanoBRET Blue at 460 nm) and acceptor emission (BRET Deep Red at 647 nm) for 0.5 s.
The assay setup is identical to “NanoBRET fold change experimental setup”. Instead of treating cells in […] with 10 μM compound, a 10-point titration starting at 20 μM is performed with a dilution factor of 1:4, covering α range of 20000 nM-0.076 nM.

Row | SMILES | NanoBRET fold-change Activity Class [1] | DC50 [3] [nM] | activity in NanoBRET assay (ternary complex formation), in words [5] | NanoBRET EC50 Activity Class [5] | NanoLuc-CCNK degradation DC50 Activity Class [3] | EC50 [5] [nM] | EC50 [2] [nM] | Ratio UBE2M WT to KO [2] | activity in NanoLuc CCNK degradation assay, in words [3] | EC50 [4] [nM] | activity in KBM7 cytotoxicity assay, in words [2] | dependence of cytotoxicity on UBE2M, in words ([2]; KBM7 wild-type versus UBE2M mutant)
1 | Cc1ccc2c(CC(=O)Nc3cc(C(F)(F)F)[nH]n3)coc2c1C [Example 3-48, 2-(6,7-dimethylbenzofuran-3-yl)-N-(5-(trifluoromethyl)-1H-pyrazol-3-yl)acetamide] | B (3-4 fold increase) |  |  | B (0.50 μM≤EC50≤0.25 μM) | B (0.50 μM≤DC50<0.10 μM) |  | ≤ 250 | 15.7 |  | 500 to 1000 |  | 
2 | Cc1ccc(NC(=O)Cc2coc3c(C)c(C)ccc23)nc1 [Example 3-50, 2-(6,7-dimethylbenzofuran-3-yl)-N-(5-methylpyridin-2-yl)acetamide] | A (greater than 4-fold increase) |  |  |  | D (10 μM≤DC50<1.0 μM) | ≤ 250 | 250 to 500 | >10 |  | > 10000 |  | 
3 | Cc1ccc2c(CC(=O)Nc3ccc(Br)cn3)coc2c1C [Example 3-53, N-(5-bromopyridin-2-yl)-2-(6,7-dimethylbenzofuran-3-yl)acetamide] | B (3-4 fold increase) |  |  |  | B (0.50 μM≤DC50<0.10 μM) | > 10000 | ≤ 250 | 22.7 |  | 1000 to 10000 |  | 
4 | Cc1ccc2c(CC(=O)Nc3cc(C(C)C)[nH]n3)coc2c1C [Example 3-45, 2-(6,7-dimethylbenzofuran-3-yl)-N-(5-isopropyl-1H-pyrazol-3-yl)acetamide] | A (greater than 4-fold increase) | ≤ 100 |  | B (0.50 μM≤EC50≤0.25 μM) |  |  | ≤ 250 | 18.6 |  | ≤ 250 |  | extremely high dependence
5 | Cc1cc(NC(=O)Cc2coc3c(C)c(C)ccc23)n[nH]1 [Example 3-44, 2-(6,7-dimethylbenzofuran-3-yl)-N-(5-methyl-1H-pyrazol-3-yl)acetamide] | A (greater than 4-fold increase) |  |  |  | B (0.50 μM≤DC50<0.10 μM) | ≤ 250 | ≤ 250 | 34.4 |  | 250 to 500 |  | 
6 | Cc1ccc2c(CC(=O)Nc3ncc(C4CC4)s3)coc2c1C [Example 3-42, N-(5-cyclopropylthiazol-2-yl)-2-(6,7-dimethylbenzofuran-3-yl)acetamide] | A (greater than 4-fold increase) | ≤ 100 |  | C (1.0 μM≤EC50<0.50 μM) |  |  | ≤ 250 | 8.5 |  | ≤ 250 |  | 
7 | Cc1cnc(NC(=O)Cc2coc3c(C)c(C)ccc23)s1 [Example 3-1, 2-(6,7-dimethylbenzofuran-3-yl)-N-(5-methylthiazol-2-yl)acetamide] | B (3-4 fold increase) |  |  |  | B (0.50 μM≤DC50<0.10 μM) | ≤ 250 | ≤ 250 | 25.3 |  | 500 to 1000 |  | 

Now from value to compound, other results behind:

Row | NanoBRET fold-change Activity Class [1] | DC50 [3] [nM] | activity in NanoBRET assay (ternary complex formation), in words [5] | NanoBRET EC50 Activity Class [5] | NanoLuc-CCNK degradation DC50 Activity Class [3] | EC50 [5] [nM] | SMILES | EC50 [2] [nM] | Ratio UBE2M WT to KO [2] | activity in NanoLuc CCNK degradation assay, in words [3] | EC50 [4] [nM] | activity in KBM7 cytotoxicity assay, in words [2] | dependence of cytotoxicity on UBE2M, in words ([2]; KBM7 wild-type versus UBE2M mutant)
8 | B (3-4 fold increase) | ≤ 100 | particularly exceptional | C (1.0 μM≤EC50<0.50 μM) |  |  | O=C(Cc1cn2cc(F)ccc2n1)Nc1ncc(C(F)(F)F)s1 [Example 3-5, 2-(6-fluoroimidazo[1,2-a]pyridin-2-yl)-N-(5-(trifluoromethyl)thiazol-2-yl)acetamide] | ≤ 250 | 142 | particularly exceptional | 250 to 500 |  | 
9 | C (2-3 fold increase) | > 10000 |  |  |  | > 10000 | O=C(Cc1cn2cc(F)ccc2n1)Nc1cc(C(F)(F)F)[nH]n1 [Example 3-59, 2-(6-fluoroimidazo[1,2-a]pyridin-2-yl)-N-(5-(trifluoromethyl)-1H-pyrazol-3-yl)acetamide] | 250 to 500 | >10 |  | > 10000 |  | 
10 | A (greater than 4-fold increase) | ≤ 100 | exceptional |  |  | ≤ 250 | O=C(Cc1cn2cc(F)ccc2n1)Nc1ncc(C2CC2)s1 [Example 3-43, N-(5-cyclopropylthiazol-2-yl)-2-(6-fluoroimidazo[1,2-a]pyridin-2-yl)acetamide] | ≤ 250 |  | exceptional | ≤ 250 | extremely potent activity | 
11 | A (greater than 4-fold increase) | ≤ 100 | exceptional activity |  |  | ≤ 250 | COc1cc(Br)cn2cc(CC(=O)Nc3ncc(C(F)(F)F)s3)nc12 [Example 3-9, 2-(6-bromo-8-methoxyimidazo[1,2-a]pyridin-2-yl)-N-(5-(trifluoromethyl)thiazol-2-yl)acetamide] | ≤ 250 | 2.0 | exceptional activity | ≤ 250 | extremely potent activity | 
12 | A (greater than 4-fold increase) | ≤ 100 |  | B (0.50 μM≤EC50≤0.25 μM) |  |  | O=C(Nc1ncc(C(F)(F)F)s1)C1CC(=O)N(c2cccc(Cl)c2)C1 (stereo not shown) [Example 3-19, 1-(3-chlorophenyl)-5-oxo-N-(5-(trifluoromethyl)thiazol-2-yl)pyrrolidine-3-carboxamide] | ≤ 250 | 9.1 |  | ≤ 250 |  | 
13 | A (greater than 4-fold increase) | ≤ 100 |  | B (0.50 μM≤EC50≤0.25 μM) |  |  | Cc1cc(N2CC(C(=O)Nc3ncc(C(F)(F)F)s3)CC2=O)ccc1F (stereo not shown) [Example 3-17, 1-(4-fluoro-3-methylphenyl)-5-oxo-N-(5-(trifluoromethyl)thiazol-2-yl)pyrrolidine-3-carboxamide] | ≤ 250 | 17.0 |  | 250 to 500 |  | 
14 | B (3-4 fold increase) | > 10000 |  |  |  | > 10000 | O=C(Nc1ncc(C(F)(F)F)s1)C1CC(=O)N(c2cc(F)ccc2F)C1 (stereo not shown) [Example 3-22, 1-(2,5-difluorophenyl)-5-oxo-N-(5-(trifluoromethyl)thiazol-2-yl)pyrrolidine-3-carboxamide] | ≤ 250 | >10 |  | > 10000 |  | 
15 | A (greater than 4-fold increase) | ≤ 100 | extremely high activity |  |  | ≤ 250 | O=C(Cc1ccc2ncccc2c1)Nc1ncc(C(F)(F)F)s1 [Example 3-14, 2-(quinolin-6-yl)-N-(5-(trifluoromethyl)thiazol-2-yl)acetamide] | ≤ 250 |  | extremely high activity | ≤ 250 | extremely potent activity | 
16 | D (1-2 fold increase) | > 10000 |  |  |  | > 10000 | Cc1ccc2c(CC(=O)Nc3ncc(Cl)s3)coc2c1C [Example 3-3, N-(5-chlorothiazol-2-yl)-2-(6,7-dimethylbenzofuran-3-yl)acetamide] | ≤ 250 | 23.5 |  | 1000 to 10000 |  | 
